# Assay results: ChEMBL document CHEMBL3297698, “Novel synthetic route for antimalarial benzo[a]phenoxazine derivative SSJ-183 and two active metabolites” (Bioorg Med Chem, 2014)
# Tests used:
# Plasmodium falciparum [1] = assay: Antimalarial activity against Plasmodium falciparum K1 assessed as inhibition of [3H]hypoxanthine incorporation preincubated for 48 hrs measured 24 hrs post [3H]hypoxanthine addition by liquid scintillation counting; assay type: functional, organism-based
# Plasmodium falciparum [2] = assay: Antimalarial activity against Plasmodium falciparum […] assessed as inhibition of [3H]hypoxanthine incorporation preincubated for 48 hrs measured 24 hrs post [3H]hypoxanthine addition by liquid scintillation counting; assay type: functional, organism-based
IC50 (Plasmodium falciparum [1]) [nM],IC50 (Plasmodium falciparum [2]) [nM],Structure (SMILES)
6.5,11,CCN(CC)c1ccc2nc3c4ccccc4/c(=N\c4ccncc4)cc-3oc2c1
5,7.5,CCNc1ccc2nc3c4ccccc4/c(=N/c4ccncc4)cc-3oc2c1
17.1,24,Nc1ccc2nc3c4ccccc4/c(=N/c4ccncc4)cc-3oc2c1
5.2,4.2,CN(C)c1ccc2nc3ccc(=[N+](C)C)cc-3sc2c1 [METHYLENE BLUE CATION]
